Patent publication US10822317B2, “Methods and compositions for wound healing” (QBiotics Limited, priority 2013, dated 2020)

Experiments:
[1] = tested on: infected bone wound; infectious vasculitis in the ear; assay: Veterinary case studies 8 and 9, tree kangaroo wounds; assay type: in vivo, Dendrolagus lumholtzi
Procedure: Seven dogs (Canis lupus familiaris) and one tree kangaroo (Dendrolagus humholzii) with chronic, non-healing wounds that were unresponsive to current veterinary standards-of-care for these indications were treated with Compound 1 by independent veterinarians. A second tree kangaroo and a spectacled flying fox (Pteropus conspicillatus) with wounds unsuited for initial treatment with current standards-of-care were also treated with Compound 1. All cases were managed as open wounds without the use of dressings or other bandaging during the course of treatment with Compound 1 and the subsequent period of wound resolution. Unless stated in individual case studies, no concomitant medications were used over the course of treatments with Compound 1.
The patient was treated for 1 month with injectable antibiotics ceftazidime (Fortum) and trimethoprim sulphamethoxazole (TMS). […] Within 10 minutes of the application of Compound 1 gel there was a purulent discharge from the treated area. • On presentation 8 days after the first treatment a purulent discharge was oozing from 2 of the 3 wounds on the leg. The other wound (smallest lesion on the heal) had contracted and commenced healing. A further treatment of 0.15 mL of 5 mg/mL gel formulation of Compound 1 was used to treat each of the two open wounds (one over the ankle joint, the other on the base of the foot pad). A slow IV. infusion of sodium iodide was also given. • A further 15 days later (23 days after initial treatment) several mLs of thick purulent pus was squeezed from the wound on the pad of the foot before forcing 0.15 mL of 5 mg/mL gel formulation of Compound 1 into the drained wound sinus. • One week later there was significant improvement. in the infection. A small piece of bone was removed from the hole in the foot pad. There was no pus evident but there was a serous discharge. A further 0.2 mL. of the Compound 1 gel was applied to each of lesions, one over the ankle, the other underneath the foot. A slow IV infusion of sodium iodide was also delivered. Limb is now weight bearing. but the heal and foot pad is still very firm with inflammation and the animal's gait is very uneven and strongly favouring the undamaged hind leg. • A further 15 days later the wound over the ankle joint had fully closed and hair was growing back. The wound on the heal of the foot pad had contracted to less than 50% of its size at the previous visit and the surrounding skin and tissue is soft, pliable and normal.
Case notes: • The patient presented as a young injured animal found in the wild. • Patient was very weak, dehydrated and anaemic. […] Patient was placed on fluid therapy and medicated with anti-nausea drug maropitant citrate (cerenia) and two injectable antibiotic formulations Tribacteral (trimethoprim, sulfadiazine) and ceftazidime (fortum). • After 9 days on a fluid drip the patient's condition had improved but there was trauma to the right ear and likely infectious vasculitis and gangrene. Surgery was not possible because of significant anaesthetic risk due to the patient's highly compromised condition. Instead, treatment with a gel formulation of Compound 1 was initiated. • Three treatments of 0.1 mL of 5 mg/mL strength Compound 1 gel were applied to the affected area at 7 day intervals. The only concurrent medication during this time was the cephalosporin antibiotics deftazidime (fortum). • At 7 days after the first treatment of Compound 1 gel, a tightly adhering eschar covered the wound surface.

[2] = tested on: human neonatal fibroblasts; assay: Scratch closure, human neonatal fibroblasts, Method 2; assay type: cell-based; details: 200 ng/mL
Procedure: The ability of early. passage neonatal foreskin fibroblasts (NFF) cultured in RPMI 1640-10% foetal calf serum to migrate across a scratch wound made in a confluent monolayer following treatment with purified compounds or plant extracts was determined using one or more of the following three methods.
Cells were seeded in 6 mm wells (96-well plates) or 16 mm (24-well plates), with 2 to 6 replicate wells/dilution, and treated as in Method 1. Immediately after treatment, the scratch edges were outlined on the underside of the well with a fine point felt pen. After fixing and staining, migration was assessed under the microscope with the aid of a graticule, scoring migration as 0, 25, 50, 75 or 100% (total closure) of the initial width. Accelerated wound closure was considered to be significant if mean quartile of replicates was […] that of untreated controls (p<0.05, t-test). In addition, “wound” areas were created by seeding cells in the presence of 3 mm stainless steel pins (96-well plate), or by inserting flat-edged Teflon rings. These devices were removed after overnight incubation of the NFF cells.

[3] = tested on: immortalised human keratinocyte cells (HaCaT); assay: Scratch repopulation and closure with HaCaT; assay type: cell-based; details: 48 hours, ± standard error
Procedure: The ability of immortalised human keratinocyte cells (HaCaT) to migrate across a scratch wound made in a confluent monolayer following treatment with either Compound 1 or Compound 37 was determined by the following method.
Trypsinised HaCaT cells were seeded at a cell density of 7.4×10^4 cells/mL in 24-well BD Falcon flat-bottomed, tissue culture plates (VWR International, UK) in 1 mL Dulbecco's Modified Eagle Medium (DMEM), supplemented with L-glutamine (2 mM), antibiotics (100 U/mL penicillin G sodium, 100 μg/mL streptomycin sulphate and 0.25 μg/mL amphotericin B); and 10% foetal calf serum (all Invitrogen Ltd., UK) to give a cell density of 7.4×10^4 cells seeded in each well. The cells were then maintained at 37° C. in a 5% CO2/95% air atmosphere overnight. The following morning, the 10% foetal calf serum-containing DMEM was replaced with serum-free DMEM and the HaCaT cells were subsequently serum-starved in DMEM for 48 hr.
After 48 hr, the serum-free DMEM was removed and a single scratch ‘wound’ made with a sterile pipette across each cell layer. Following washing twice in 1 mL PBS, Compound 1- or Compound 37-containing medium (1 mL) was added to each well. This medium consisted of DMEM, supplemented with L-glutamine (2 mM), antibiotics (as above) and 1% foetal calf serum, in addition to Compound 1 or Compound 37 at final concentrations of 0, 0.001, 0.01, 0.1, 1.0, 10 or 100 μg/mL. There were three replicate wells per concentration for each compound.
The HaCaT cultures were maintained at 37° C. in a 5% CO2/95% air atmosphere and the repopulation of the denuded ‘wound’ areas monitored by Time-Lapse Confocal Microscopy (Leica TCS SP5 Confocal Microscope; Leica Microsystems UK Ltd., UK) at 100× magnification, with digital images captured at fixed positions every 20 min over a 48 h period. The digital image sequences were exported and prepared as .avi movie files, using LAS AF Software (Leica Microsystems). The rates of HaCaT wound closure in vitro were quantified using ImageJ Software (ImageJ 1.37v; http://rsb.info.nih.gov/ij/). The data was analysed by One Way Analysis of Variance with post-test Tukey analysis. Each experiment was performed on 3 separate occasions.

[4] = Case 8, 15 days after the fourth application

## CC=C(C)C(=O)OC1C(C)C2(O)C(C3OC3(CO)C(O)C3(O)C(=O)C(C)=CC32)C2C(C)(C)C12OC(=O)C(C)CC (stereo not shown) [Compound 1, 12-tigloyl-13-(2-methylbutanoyl)-6,7-epoxy-4,5,9,12,13,20-hexahydroxy-1-tigliaen-3-one]
[1]; Case 8, tree kangaroo, infected bone wound, first application 0.1 mL gel 5 mg/mL per lesion
  time to purulent discharge from the treated area: ≤ 10 min
[1]; Case 8, 4 applications gel 5 mg/mL, 15 days after the fourth application
  wound outcome, wound over the ankle joint: fully closed
[1]; [4]
  limb function: fully weight bearing
  wound on the heal of the foot pad, % of its size at the previous visit: less than 50%
[1]; Case 9, tree kangaroo, ear, 3 x 0.1 mL gel 5 mg/mL at 7 day intervals, 14 days after initial treatment
  reduction of wound area: approximately 50%
[1]; Case 9, 25 days
  wound status: healthy tissue was present over the entire area of the wound
[1]; Case 9, 67 days
  wound outcome: totally resolved and there was full hair coverage over the ear
[2]
  % closure compared to control: 180%
[3]; 0.001 μg/ml
  % of scratch wound area remaining open after treatment: 8.6 ± 9.4%
[3]; 0.01 μg/ml
  % of scratch wound area remaining open after treatment: 19.7 ± 9.3%
[3]; 0.1 μg/ml
  % of scratch wound area remaining open after treatment: 21.4 ± 5.8%
[3]; 1.0 μg/ml
  % of scratch wound area remaining open after treatment: 35.4 ± 7.9%
[3]; 10 μg/ml
  % of scratch wound area remaining open after treatment: 45.5 ± 7.3%
